Test results: publication PMC5984625, “Dynamic structural states of ClpB involved in its disaggregation function” (Nature Communications, 2018)

Biological target: T1, ΔN-TClpB (Thermus thermophilus, UniProt Q9RA63)
T1 construct: gene clpB; N-terminal domain deletion (AAA1, M-domain and AAA2 kept); from plasmid pMCB1; expressed in E. coli BL21(DE3) or KRX; purified; hexamer and smaller oligomers
Experiment: fluorescence displacement of mant-ADP
Details: per monomer; competitive binding model; 12.5 μM mant-ADP; Mg-ATP; pH 7.5, 20 mM KCl, 5 mM MgCl2, 25 °C; read-out: apparent Kd

T1 sequence (Q9RA63 141-854, stated change not applied): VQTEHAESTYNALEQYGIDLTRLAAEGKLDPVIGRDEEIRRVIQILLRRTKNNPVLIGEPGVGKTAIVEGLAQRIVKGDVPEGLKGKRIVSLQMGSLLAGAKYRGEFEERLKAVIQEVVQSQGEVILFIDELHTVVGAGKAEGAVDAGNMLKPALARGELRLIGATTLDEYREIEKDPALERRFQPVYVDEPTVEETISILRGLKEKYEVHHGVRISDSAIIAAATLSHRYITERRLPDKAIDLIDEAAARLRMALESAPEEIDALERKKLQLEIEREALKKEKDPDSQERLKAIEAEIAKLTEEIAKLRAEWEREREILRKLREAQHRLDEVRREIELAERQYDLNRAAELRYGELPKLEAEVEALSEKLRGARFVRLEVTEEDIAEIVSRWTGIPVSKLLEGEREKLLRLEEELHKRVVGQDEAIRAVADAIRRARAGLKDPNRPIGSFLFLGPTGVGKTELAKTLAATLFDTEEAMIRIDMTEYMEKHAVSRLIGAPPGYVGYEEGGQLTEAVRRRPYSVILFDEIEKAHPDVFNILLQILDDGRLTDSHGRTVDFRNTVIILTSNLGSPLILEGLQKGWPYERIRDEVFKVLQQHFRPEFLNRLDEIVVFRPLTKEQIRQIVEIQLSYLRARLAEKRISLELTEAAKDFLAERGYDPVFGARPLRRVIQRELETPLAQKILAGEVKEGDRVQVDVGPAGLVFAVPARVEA

Kd: 9.2 µM
Structure (SMILES): Nc1ncnc2c1ncn2[C@@H]1O[C@H](COP(=O)(O)OP(=O)(O)OP(=O)(O)O)[C@@H](O)[C@H]1O [ATP]
